Type in all cases: functional
Test [1] can be described thus: Inhibition efficacy of TNF-alpha was tested in HPBMC (Human Peripheral Blood Mononuclear Cells). On the set-up: concentration or dose not given beside the values.
Test [2] in a line: Inhibition of TNF-alpha was tested in HPBMC (Human Peripheral Blood Mononuclear Cells).
The nature of test [3]: (§1) Cytotoxicity in HPBMC (Human Peripheral Blood Mononuclear Cells). Also noted: concentration or dose not given beside the values.
Test [4] in a line: as §1.
The species entered for test [5] is Homo sapiens. Nature of the test: (§2) Cytotoxicity in HPBMC (Human Peripheral Blood Mononuclear Cells); Not active.
Test [6] is filed under the species Homo sapiens. Nature of the test: Inhibition efficacy of TNF-alpha was tested in HPBMC (Human Peripheral Blood Mononuclear Cells); Not active.
Test [7] can be described thus: Inhibition of TNF-alpha was tested in HPBMC (Human Peripheral Blood Mononuclear Cells); Inactive.
The nature of test [8]: Inhibition of TNF-alpha was tested in HPBMC (Human Peripheral Blood Mononuclear Cells); In active.
The nature of test [9]: as §2.
A short description of test [10]: Inhibition of TNF-alpha was tested in HPBMC (Human Peripheral Blood Mononuclear Cells); inactive.

Our source for the Efficacy, IC50 and EC50 values is ChEMBL document CHEMBL1136231, “Synthesis of a novel family of diterpenes and their evaluation as anti-inflammatory agents” (Bioorg Med Chem Lett, 2003).

SMILES strings stand for the structures. ≈ marks a conversion by molar mass, not a printed value. Calls of active or inactive are those of the source. The rule behind the calls is not given here.

Take `C=C[C@]1(C)CCC=C2[C@H]1CC[C@@H]1[C@](C)(C(=O)O)CCC[C@@]21C`: the Efficacy in test [1] is 86%; in test [3], 35%. This compound yielded an IC50 in test [2] of 3.7 µg/mL (≈ 12.2 µM).
Turning to `C=C[C@@]1(C)CCC=C2[C@H]1CC[C@@H]1[C@](C)(C(=O)O)CCC[C@@]21C`, the figures for the Efficacy in [1] and in test [3] were 90% and 66%, respectively. Further, in test [4], the EC50 is 7.8 µg/mL (≈ 25.8 µM). The IC50 in [2] amounted to 5.7 µg/mL (≈ 18.8 µM).
Take `C=C[C@@]1(C)CCC=C2[C@H]1CC[C@@H]1[C@](C)(CO)CCC[C@@]21C`: the Efficacy result in [5] was “inactive”. The compound further gave an Efficacy in test [1] of 38%. In test [2], this compound showed an IC50 of 2.3 µg/mL (≈ 7.97 µM).
Consider `C=C[C@]1(C)CCC=C2[C@H]1CC[C@@H]1[C@](C)(CO)CCC[C@@]21C`, for which the Efficacy is listed as 99% in test [1] and 93% in [3]. Moreover, the EC50 in test [4] was determined as 2.3 µg/mL (≈ 7.97 µM). The same compound came in with an IC50 in test [2] of 2.2 µg/mL (≈ 7.63 µM).
Turning to `C=C[C@@]1(C)CCC=C2[C@H]1CC[C@@H]1[C@](C)(C(=O)OC)CCC[C@@]21C`, the Efficacy turned out to be 99% in [1] and 98% in test [3]. A half-maximal effect in [4] (EC50) was put at 1.8 µg/mL (≈ 5.69 µM). Moreover, in [2], the midpoint of inhibition, the IC50, lay at 0.7 µg/mL (≈ 2.21 µM).
In the case of `C[C@]1(C(=O)O)CCC[C@]2(C)c3cc(O)ccc3CC[C@@H]12` [PODOCARIC ACID], the Efficacy result in [5] and in test [6] was “inactive” in each case. Also, the IC50 entry in test [7] is “Not Active”.
For `C=C[C@]1(C)CCC=C2[C@H]1CC[C@@H]1[C@](C)(C(=O)OC)CCC[C@@]21C`, the Efficacy amounted to 99% in test [1] and 71% in test [3]. In addition, in test [4], the EC50 amounted to 3.1 µg/mL (≈ 9.8 µM). The compound also yielded an IC50 in [2] of 1.4 µg/mL (≈ 4.42 µM).
In the case of `COC(=O)[C@]1(C)CCC[C@@]2(C)C3=CCC[C@](C)(CO)[C@@H]3CC[C@H]12`, the Efficacy result in [5] and in test [6] was “inactive” in each case. Besides, the IC50 result in test [8] is recorded as “Not Active”. The EC50 entry in test [9] is on record as “Not Active”.
For the compound `C=C[C@@]1(C)CCCC2=C1CC[C@@H]1[C@](C)(C(=O)O)CCC[C@@]21C`, the Efficacy in [1] is on record as 98%; in [3] it was 99%. Besides, in [4], the EC50 is 2.2 µg/mL (≈ 7.27 µM). The compound also came in with an IC50 in test [2] of 2.8 µg/mL (≈ 9.26 µM).
As to `C=C[C@@]1(C)CCCC2=C1CC[C@@H]1[C@](C)(CO)CCC[C@@]21C`, the Efficacy in test [1] and in test [3] was 99% throughout. The EC50 in [4] stood at 3.4 µg/mL (≈ 11.8 µM). In test [2], the IC50 was 3.1 µg/mL (≈ 10.7 µM).
For `C=C[C@@]1(C)CCCC2=C1CC[C@@H]1[C@](C)(C(=O)OC)CCC[C@@]21C`, the Efficacy result in [5] was “inactive”. This compound also gave an Efficacy in test [1] of 47%. In addition, in test [2], the midpoint of inhibition, the IC50, lay at 0.6 µg/mL (≈ 1.9 µM).
As for `C=C[C@@]1(C)CC(=O)[C@]2(O)[C@@]3(C)[C@@H](O)CCC(C)(C)[C@@H]3[C@H](O)[C@H](OC(C)=O)[C@@]2(C)O1` [COLFORSIN], the Efficacy entry in test [5] and in test [6] was “inactive” in each case. In addition, the IC50 entry in [10] is recorded as “Not Active”.
